This note sets out measurements from patent US6207399A, “Methods of determining endogenous thrombin potential (ETP) and thrombin substrates for use in said methods” (Hemker; Hendrik Coenraad, priority 1995, dated 2001).

Square brackets hold non-standard residues; d marks the D form. Peptide text beside a SMILES is read from it. * marks the point of attachment. pNA = O=[N+]([O-])c1ccc(N*)cc1; Tos = Cc1ccc(S(=O)(=O)*)cc1; Pip = O=C(O)[C@@H]1CCCCN1; Nle = CCCC[C@H](N)C(=O)O; Orn = NCCC[C@H](N)C(=O)O

For one assay, the target named is T1, human α-thrombin (Homo sapiens, UniProt P00734).
T1 construct: Pure human α-thrombin; gift of Dr. T. Lindhout (University of Limburg, Maastricht)
Kind of assay: Kinetics of hydrolysis of substrates by human α-thrombin in buffer A at 37° C. (Example 2, Table 1). Further details: key to kcat: NH: not hydrolyzed by thrombin. The format is biochemical. The procedure: (§1) Kinetic parameters: The hydrolysis experiments were run in buffer A at 37° C. The liberation of p-nitroaniline was monitored at 405 nm in a dual wavelength (405-546 nm) spectrophotometer made in our workshop, using a personal computer for data recording. In a polystyrene microcuvette (total volume 500 μL), buffer A and substrate solution were added to obtain a final substrate concentration between 1 to 2000 μM. After 5 min of incubation at 37° C., enzyme solution was added to achieve a final concentration between 0.5 to 100 nM. The measurement was carried out at 37° C. in a thermostated cuvette-holder. The Michaelis constant (Km) and the catalytic constant (kcat) were obtained by measuring initial reaction velocities at different substrate concentrations. The data obtained were fitted by linear regression on the Michaelis-Menten equation.
(§2) Kinetic parameters: In a preliminary experiment, the substrate was hydrolyzed under the following conditions: enzyme concentration: 10 to 20 nM, substrate concentration: 200 μM in buffer A to get an impression of the initial velocity. […] The results are given in table 1 and 2 for thrombin and factor Xa respectively. The Km and kcat for each substrate were determined from the initial velocities measured for at least six substrate concentrations in the concentration range as given. The enzyme concentration used gives a good signal to noise ratio. The data given are obtained from one or two experiments. The data from table 1 and 2 were only used as the first selection criterion to get a rough impression of the hydrolysis behaviour. Notwithstanding the preliminary character of the measurement it was helpful in the design of the substrates of our interest.

A further assay concerns the target T2, factor Xa (Homo sapiens, UniProt P00742).
T2 construct: human factor Xa samples; gift of Dr. T. Lindhout (University of Limburg, Maastricht)
Nature of the assay: Kinetics of hydrolysis of substrates by human factor Xa in buffer A at 37° C. (Example 2, Table 2). The assay is classed as biochemical. Further details: key to kcat: NH: not hydrolyzed by factor Xa. The procedure:
as §1, §2

T2 sequence (P00742 41-179 limits assumed): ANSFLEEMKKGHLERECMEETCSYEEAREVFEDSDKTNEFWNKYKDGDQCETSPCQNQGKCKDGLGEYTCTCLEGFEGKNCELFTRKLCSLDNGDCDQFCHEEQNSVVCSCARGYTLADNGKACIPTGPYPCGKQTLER
T2 sequence (P00742 235-488 limits assumed): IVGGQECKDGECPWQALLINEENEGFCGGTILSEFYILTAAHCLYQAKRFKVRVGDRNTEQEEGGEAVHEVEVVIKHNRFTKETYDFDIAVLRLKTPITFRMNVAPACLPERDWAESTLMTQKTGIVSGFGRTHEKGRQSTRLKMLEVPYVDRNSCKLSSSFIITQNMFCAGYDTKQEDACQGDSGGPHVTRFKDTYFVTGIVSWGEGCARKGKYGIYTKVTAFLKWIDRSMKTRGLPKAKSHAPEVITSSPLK

The term Km denotes the substrate concentration at which the rate is half of its maximum. A word on the kcat: it is the maximal rate divided by the concentration of active sites. As for `COC(=O)CC(=O)N[C@H](C)C(=O)N[C@@H](CCCNC(=N)N)C(=O)Nc1ccc([N+](=O)[O-])cc1.Cl` [MZ-D-Ala-Arg-pNA.HCl], at human α-thrombin, the Km stood at 1330 µM, the kcat was 0.059 s⁻¹ and the “kcat /Km” value was 44.4 M/s. In addition, on factor Xa, the Km worked out at 3080 µM, the kcat was 0.088 s⁻¹ and the “kcat /Km” value is 28.5 M/s.

On to `COC(=O)C(C)C(=O)NC(C)C(=O)NC(CCCNC(=N)N)C(=O)Nc1ccc([N+](=O)[O-])cc1.Cl` (mixture of isomers) [MMZ-Ala-Arg-pNA.HCl], for which, at human α-thrombin, the Km stood at 666 µM, the kcat worked out at 16.5 s⁻¹ and the “kcat /Km” value was found to be 24800 M/s. On factor Xa, the Km came to 7050 µM, the turnover number (kcat) amounted to 40.6 s⁻¹ and the “kcat /Km” value amounted to 5750 M/s.

For `CCC(CC)(C(=O)NCC(=O)N[C@@H](CCCNC(=N)N)C(=O)Nc1ccc([N+](=O)[O-])cc1)C(=O)OC.Cl` [DEMZ-Gly-Arg-pNA.HCl], at human α-thrombin, the Km is 866 µM, the kcat is 1.73 s⁻¹ and the “kcat /Km” value turned out to be 1990 M/s. For the same compound, on factor Xa, the Km is 2320 µM, the kcat amounted to 4.54 s⁻¹ and the “kcat /Km” value came to 1960 M/s.

For the compound `COC(=O)C(C)(C)C(=O)N[C@@H](C)C(=O)N[C@@H](CCCNC(=N)N)C(=O)Nc1ccc([N+](=O)[O-])cc1.Cl` [DMMZ-Ala-Arg-pNA.HCl], at human α-thrombin, the Km came out at 565 µM, the kcat stood at 4.08 s⁻¹ and the “kcat /Km” value amounted to 7220 M/s. Also, at factor Xa, the Km was 2240 µM, the kcat is 11.04 s⁻¹ and the “kcat /Km” value turned out to be 4930 M/s.

On to `Cl.N=C(N)NCCC[C@H](NC(=O)CNS(=O)(=O)c1ccc2ccccc2c1)C(=O)Nc1ccc([N+](=O)[O-])cc1` [βNS-Gly-Arg-pNA.HCl], for which the kcat entry on human α-thrombin is listed as “NH”. Moreover, at factor Xa, the Km is 116 µM, the catalytic constant (kcat) came out at 2.00 s⁻¹ and the “kcat /Km” value worked out at 17300 M/s.

Regarding `CCCC[C@H](NC(=O)[C@@H]1CCCN1C(=O)[C@H](N)Cc1ccccc1)C(=O)Nc1ccc([N+](=O)[O-])cc1.Cl` [HCl.H-D-Phe-Pro-Nle-pNA] (H-[dF]-Pro-[Nle]-pNA), at human α-thrombin, the Km was 87.9 µM, the kcat worked out at 6.66 s⁻¹ and the “kcat /Km” value turned out to be 75400 M/s.

Consider `CCCC[C@H](NC(=O)[C@@H]1CCCCN1C(=O)[C@H](N)Cc1ccccc1)C(=O)Nc1ccc([N+](=O)[O-])cc1.Cl` [HCl.H-D-Phe-Pip-Nle-pNA] (H-[dF]-[Pip]-[Nle]-pNA), for which, on human α-thrombin, the Km was 943 µM, the kcat was 11.4 s⁻¹ and the “kcat /Km” value came out at 12100 M/s. In addition, the kcat result at factor Xa was “NH”.

As to `COC(=O)C(C)(C)C(=O)NCC(=O)N[C@@H](CCCNC(=N)N)C(=O)Nc1ccc([N+](=O)[O-])cc1.Cl` [DMMZ-Gly-Arg-pNA.HCl], on human α-thrombin, the Km turned out to be 902 µM, the kcat came out at 6.44 s⁻¹ and the “kcat /Km” value came to 7140 M/s. In addition, on factor Xa, the Michaelis-Menten constant (Km) came to 2840 µM, the kcat amounted to 13.6 s⁻¹ and the “kcat /Km” value was determined as 4790 M/s.

In the case of `C[C@H](N)C(=O)N[C@@H](CCCNC(=N)N)C(=O)Nc1ccc([N+](=O)[O-])cc1.Cl.Cl` [2HCl.H-Ala-Arg-pNA] (H-Ala-Arg-pNA), at human α-thrombin, the Km was determined as 1140 µM, the kcat amounted to 0.074 s⁻¹ and the “kcat /Km” value turned out to be 64.9 M/s.

Consider `COC(=O)CC(=O)N[C@@H](C)C(=O)N[C@@H](CCCNC(=N)N)C(=O)Nc1ccc([N+](=O)[O-])cc1.Cl` [MZ-Ala-Arg-pNA.HCl], for which, at human α-thrombin, the Km stood at 1540 µM, the kcat was 107.5 s⁻¹ and the “kcat /Km” value turned out to be 69900 M/s. Also, at factor Xa, the Km is 5590 µM, the kcat amounted to 51.7 s⁻¹ and the “kcat /Km” value came out at 9250 M/s.

For the compound `Cc1ccc(S(=O)(=O)NCC(=O)N[C@@H](CCCNC(=N)N)C(=O)Nc2ccc([N+](=O)[O-])cc2)cc1.Cl` [pTS-Gly-Arg-pNA.HCl] (Tos-Gly-Arg-pNA), the kcat entry on human α-thrombin is “NH”. Besides, on factor Xa, the Km is 233 µM, the kcat was found to be 9.26 s⁻¹ and the “kcat /Km” value was 39800 M/s.

Consider `NC(N)=NCCC[C@H](NC(=O)[C@@H]1CCCCN1C(=O)[C@H](N)Cc1ccccc1)C(=O)Nc1ccc([N+](=O)[O-])cc1` [2HCl.H-D-Phe-Pip-Arg-pNA], for which, at human α-thrombin, the Km came out at 5.62 µM, the kcat is 236.5 s⁻¹ and the “kcat /Km” value amounted to 4.21e+07 M/s. For the same compound, on factor Xa, the Km was 174 µM, the kcat turned out to be 7.49 s⁻¹ and the “kcat /Km” value was 42900 M/s.

Consider `Cl.Cl.NCCCC[C@H](NC(=O)[C@@H]1CCCCN1C(=O)[C@H](N)Cc1ccccc1)C(=O)Nc1ccc([N+](=O)[O-])cc1` [2HCl.H-D-Phe-Pip-Lys-pNA] (H-[dF]-[Pip]-Lys-pNA), for which, on human α-thrombin, the Km was found to be 65.1 µM, the kcat turned out to be 118.3 s⁻¹ and the “kcat /Km” value came to 1.82e+06 M/s. At factor Xa, the Km was 963 µM, the kcat turned out to be 0.61 s⁻¹ and the “kcat /Km” value stood at 631 M/s.

With `Cl.Cl.NCCC[C@H](NC(=O)[C@@H]1CCCCN1C(=O)[C@H](N)Cc1ccccc1)C(=O)Nc1ccc([N+](=O)[O-])cc1` [2HCl.H-D-Phe-Pip-Orn-pNA] (H-[dF]-[Pip]-[Orn]-pNA), on human α-thrombin, the Km was determined as 420 µM, the kcat stood at 4.64 s⁻¹ and the “kcat /Km” value worked out at 11100 M/s.

On to `Cl.N[C@H](Cc1ccccc1)C(=O)N1CCCC[C@H]1C(=O)N[C@@H](CCC(=O)O)C(=O)Nc1ccc([N+](=O)[O-])cc1` [HCl.H-D-Phe-Pip-Glu-pNA] (H-[dF]-[Pip]-Glu-pNA), for which, at human α-thrombin, the Km turned out to be 474 µM, the kcat stood at 0.35 s⁻¹ and the “kcat /Km” value was 739 M/s. Also, at factor Xa, the kcat result was “NH”.

For the compound `Cl.Cl.N=C(N)NCCC[C@H](NC(=O)[C@@H]1CCCN1C(=O)[C@H](N)Cc1ccccc1)C(=O)Nc1ccc([N+](=O)[O-])cc1` [2HCl.H-D-Phe-Pro-Arg-pNA], at human α-thrombin, the Km worked out at 3.16 µM, the kcat is 28.4 s⁻¹ and the “kcat /Km” value was 8.99e+06 M/s. Further, on factor Xa, the Km amounted to 693 µM, the kcat was 18.7 s⁻¹ and the “kcat /Km” value is 26900 M/s.

As for `Cl.Cl.NCC(=O)N[C@@H](CCCN=C(N)N)C(=O)Nc1ccc([N+](=O)[O-])cc1` [2HCl.H-Gly-Arg-pNA] (H-Gly-Arg-pNA), on human α-thrombin, the Km was determined as 2280 µM, the kcat stood at 0.107 s⁻¹ and the “kcat /Km” value was 46.9 M/s.

As for `COC(=O)C(C)C(=O)NCC(=O)NC(CCCNC(=N)N)C(=O)Nc1ccc([N+](=O)[O-])cc1.Cl` (mixture of isomers) [MMZ-Gly-Arg-pNA.HCl], on human α-thrombin, the Km was 1740 µM, the kcat was 6.60 s⁻¹ and the “kcat /Km” value amounted to 3800 M/s. Moreover, on factor Xa, the Km was found to be 6400 µM, the kcat is 43.9 s⁻¹ and the “kcat /Km” value came out at 6860 M/s.

As for `CC(C)[C@@H](N)C(=O)N[C@@H](CCCNC(=N)N)C(=O)Nc1ccc([N+](=O)[O-])cc1.Cl.Cl` [2HCl.H-D-Val-Arg-pNA] (H-[dV]-Arg-pNA), on human α-thrombin, the Km was determined as 4250 µM, the kcat was 0.28 s⁻¹ and the “kcat /Km” value came out at 65.9 M/s.

As to `COC(=O)CC(=O)N[C@@H](C(=O)N[C@@H](CCCNC(=N)N)C(=O)Nc1ccc([N+](=O)[O-])cc1)C(C)C.Cl` [MZ-D-Val-Arg-pNA.HCl], on human α-thrombin, the Km is 1310 µM, the kcat came out at 0.146 s⁻¹ and the “kcat /Km” value came to 111 M/s. On factor Xa, the Km worked out at 1820 µM, the kcat is 0.13 s⁻¹ and the “kcat /Km” value stood at 69.5 M/s.

For the compound `C[C@@H](N)C(=O)N[C@@H](CCCNC(=N)N)C(=O)Nc1ccc([N+](=O)[O-])cc1.Cl.Cl` [2HCl.H-D-Ala-Arg-pNA] (H-[dA]-Arg-pNA), at human α-thrombin, the Km was determined as 4080 µM, the kcat came to 0.096 s⁻¹ and the “kcat /Km” value was determined as 23.5 M/s.

For `COc1ccc(COC(=O)NCC(=O)N[C@@H](CCCNC(=N)N)C(=O)Nc2ccc([N+](=O)[O-])cc2)cc1.Cl` [MZ-Gly-Arg-pNA.HCl], on human α-thrombin, the Km was 2540 µM, the kcat is 12.3 s⁻¹ and the “kcat /Km” value came to 4850 M/s. Also, on factor Xa, the Km stood at 4700 µM, the kcat came out at 55.0 s⁻¹ and the “kcat /Km” value stood at 11700 M/s.
